According to patent US12428427B2, “Methods and compositions for targeting PD-L1” (Aligos Therapeutics, Inc., priority 2021, dated 2025):

Assays:
PDL1/PD1 = PDL1/PD1 (Homo sapiens, UniProt Q9NZQ7); assay: PDL1/PD1 Binding Assay; conditions: PDL1-6×His 0.3 nM, PD1-Fc-Avi-Biotin 2.5 nM, Acceptor/Donor beads; read-out: PD-1/PD-L1 PPI IC50
Procedure: Compounds to be tested were serially diluted in DMSO, and further diluted in assay buffer (25 mM Hepes pH 7.4, 150 mM NaCl, 0.005% Tween 20, BSA 0.01%). Diluted compounds were added to the wells with final concentration of DMSO at 1%. PDL1-6×His protein was added to the wells, mixed well with compound. The plates were incubated for 30 min at room temperature. PD1-Fc-Avi-Biotin protein was added to the wells. Final concentration of PDL1 and PD1 protein is 0.3 nM and 2.5 nM, respectively. After a binding time of 30 min at room temperature, Anti-6×His Acceptor beads (final concentration 20 ug/ml) were added to the wells, and the incubation continued for 1 h. Streptavidin Donor beads (final concentration 20 ug/mL) were added at reduced light. The plates were sealed with foil and incubated in the dark for additional 1 h or overnight before reading on an Envision reader. The IC50 values were determined by fitting the curves using a four-parameter equation in Graphpad Prism 8.

PD-1/PD-L1 interaction = molecular target: T1, PD-1/PD-L1 interaction (Homo sapiens, UniProt Q9NZQ7); assay: PD-1/PD-L1 NFAT Reporter Assay; assay type: cell-based; conditions: co-culture of PD-L1 expressing CHO cells and PD-1 overexpressing Jurkat cells, 6 hrs, NFAT luciferase
T1 construct: expressed in transfected cells; Jurkat cells (PD-1 plus NFAT-luciferase)
T1 sequence (Q9NZQ7 19-290): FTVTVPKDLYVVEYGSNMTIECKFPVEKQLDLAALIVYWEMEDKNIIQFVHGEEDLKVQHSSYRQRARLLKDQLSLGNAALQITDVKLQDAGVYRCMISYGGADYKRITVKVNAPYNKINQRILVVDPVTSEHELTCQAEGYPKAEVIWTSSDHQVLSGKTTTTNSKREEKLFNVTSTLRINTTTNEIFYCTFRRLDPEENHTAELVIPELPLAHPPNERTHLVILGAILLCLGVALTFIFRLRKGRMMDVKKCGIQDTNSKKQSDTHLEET
Procedure: Blocking the PD-1/PD-L1 interaction will release the inhibitory signal and results in TCR signaling and NFAT-mediated luciferase activity.
CHO cells expressing surface-bound anti-CD3 antibodies and PD-L1 were first seeded overnight and treated with the compounds. Jurkat cells overexpressing PD-1 and a luciferase construct under NFAT promoter were then immediately seeded on the monolayer of CHO cells. The co-culture was then incubated for 6 hrs at 37° C. Luciferase activity was assessed by adding the ONE-Glo reagent and measuring luminescence with a plate reader. EC50 values were determined from the fit of the dose-response curves.

Chain of PDL1/PD1 (Q9NZQ7 19-238 limits assumed): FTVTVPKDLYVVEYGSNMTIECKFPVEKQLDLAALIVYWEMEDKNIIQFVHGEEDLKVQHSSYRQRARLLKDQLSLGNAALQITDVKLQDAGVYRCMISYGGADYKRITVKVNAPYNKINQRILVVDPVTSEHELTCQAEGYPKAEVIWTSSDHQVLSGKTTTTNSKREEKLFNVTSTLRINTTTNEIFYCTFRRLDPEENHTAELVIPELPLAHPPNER

Row | Structure (SMILES) | IC50 (PDL1/PD1) [nM] | EC50 (PD-1/PD-L1 interaction) [nM]
1 | CCOC(=O)[C@@H]1CCN(Cc2ccc(-c3cccc(-c4cccc(NC(=O)c5ccnn(C)c5=O)c4Cl)c3Cl)nc2OC)C1 [Compound C-14] | 10 to 100 | 10 to 100
2 | CCOC(=O)[C@H]1CCN(Cc2ccc(-c3cccc(-c4cccc(NC(=O)c5ccnn(C)c5=O)c4Cl)c3Cl)nc2OC)C1 [Compound C-15] | 10 to 100 | 10 to 100
3 | COc1nc(-c2cccc(-c3cccc(NC(=O)c4ccnn(C)c4=O)c3Cl)c2Cl)ccc1CN1CC[C@@H](C(=O)O)C1 [Compound C-16] | ≤ 10 | 10 to 100
4 | COc1nc(-c2cccc(-c3cccc(NC(=O)c4ccnn(C)c4=O)c3Cl)c2Cl)ccc1CN1CC[C@H](C(=O)O)C1 [Compound C-17] | ≤ 10 | 10 to 100
5 | COC(=O)C1(F)CN(Cc2ccc(-c3cccc(-c4cccc(NC(=O)c5ccnn(C)c5=O)c4Cl)c3Cl)nc2OC)C1 [Compound C-18] | ≤ 10 | 10 to 100
6 | COc1nc(-c2cccc(-c3cccc(NC(=O)c4ccnn(C)c4=O)c3Cl)c2Cl)ccc1CN1CC(F)(C(=O)O)C1 [Compound C-19] | ≤ 10 | 10 to 100
7 | COc1nc(-c2cccc(-c3cccc(NC(=O)c4ccnn(C)c4=O)c3Cl)c2Cl)ccc1CN1CC(C)(C(=O)O)C1 [Compound C-20] | ≤ 10 | 10 to 100
8 | CCOC(=O)C1(C)CN(Cc2ccc(-c3cccc(-c4cccc(NC(=O)c5ccnn(C)c5=O)c4Cl)c3Cl)nc2OC)C1 [Compound C-21] | 10 to 100 | 100 to 1000
9 | COC(=O)C12CCC(CC1)N(Cc1ccc(-c3cccc(-c4cccc(NC(=O)c5ccnn(C)c5=O)c4Cl)c3Cl)nc1OC)C2 [Compound C-22] | ≤ 10 | 100 to 1000
10 | COc1nc(-c2cccc(-c3cccc(NC(=O)c4ccnn(C)c4=O)c3Cl)c2Cl)ccc1CN[C@@H]1CN(C(C)=O)C[C@@H]1O [Compound C-45] | – | 10 to 100
11 | COc1nc(-c2cccc(-c3cccc(NC(=O)c4ccnn(C)c4=O)c3Cl)c2Cl)ccc1CN1CC(C(=O)NS(C)(=O)=O)C1 [Compound C-46] | – | 10 to 100
12 | COc1nc(-c2cccc(-c3cccc(NC(=O)c4ccnn(C)c4=O)c3C)c2Cl)ccc1CN[C@@H]1CCOC[C@@H]1O [Compound C-52] | – | > 5000
13 | CCOC(=O)C1(C)CN(Cc2ccc(-c3cccc(-c4cccc(NC(=O)c5ccnn(C)c5=O)c4C)c3Cl)nc2OC)C1 [Compound C-59] | ≤ 10 | –
14 | COc1nc(-c2cccc(-c3cccc(NC(=O)c4ccnn(C)c4=O)c3C)c2Cl)ccc1CN1CC(F)(C(=O)O)C1 [Compound C-62] | – | 100 to 1000
15 | COc1nc(-c2cccc(-c3cccc(NC(=O)c4ccnn(C)c4=O)c3C)c2C)ccc1CN[C@@H]1CCOC[C@@H]1O [Compound C-71] | – | ≤ 10
16 | COc1nc(-c2cccc(-c3cccc(NC(=O)c4ccnn(C)c4=O)c3C)c2C)ccc1CN1C[C@@H](O)[C@@H]1C [Compound C-74] | – | > 5000
17 | COc1nc(-c2cccc(-c3cccc(NC(=O)c4ccnn(C)c4=O)c3Cl)c2Cl)cnc1CN[C@@H]1CCOC[C@@H]1O [Compound C-83] | – | 10 to 100
18 | COc1nc(-c2cccc(-c3cccc(NC(=O)c4ccnn(C)c4=O)c3Cl)c2Cl)cnc1CN1CC(O)C1 [Compound C-84] | – | 10 to 100
19 | COc1nc(-c2cccc(-c3cccc(NC(=O)c4ccnn(C)c4=O)c3Cl)c2Cl)cnc1CN1CC[C@H](O)C1 [Compound C-85] | – | ≤ 10
20 | COc1nc(-c2cccc(-c3cccc(NC(=O)c4ccnn(C)c4=O)c3C)c2Cl)cnc1CN1CC(O)C1 [Compound C-86] | – | ≤ 10
21 | COc1nc(-c2cccc(-c3cccc(NC(=O)c4ccnn(C)c4=O)c3Cl)c2Cl)ccc1CNCCC(=O)O [Compound C-93] | – | 10 to 100
22 | CCOC(=O)CCNCc1ccc(-c2cccc(-c3cccc(NC(=O)c4ccnn(C)c4=O)c3Cl)c2Cl)nc1OC [Compound C-94] | – | 10 to 100
23 | CCOC(=O)CCN(Cc1ccc(-c2cccc(-c3cccc(NC(=O)c4ccnn(C)c4=O)c3Cl)c2Cl)nc1OC)C(=O)OCc1oc(=O)oc1C [Compound F-1] | – | 100 to 1000
24 | CCOC(=O)[C@@H](O)CNCc1ccc(-c2cccc(-c3cccc(NC(=O)c4ccnn(C)c4=O)c3Cl)c2Cl)nc1OC [Compound G-1] | – | 10 to 100
25 | CCOC(=O)[C@@H]1CN(Cc2ccc(-c3cccc(-c4cccc(NC(=O)c5ccnn(C)c5=O)c4Cl)c3Cl)nc2OC)C(=O)O1 [Compound H-1] | – | > 5000
